Values joined by “and” are separate entries in the source; they are usually repeats but may differ in a detail not shown here. Equal entries are not always repeated.
Experiments:
BoNT/A LC [1] = molecular target: T1, BoNT/A LC (Clostridium botulinum, UniProt P0DPI0); assay: biochemical; format: binding
[2] = molecular target: BoNT/A LC metalloprotease (Clostridium botulinum, UniProt P0DPI0); assay: biochemical
[3] = tested on: chick spinal motor neurons
BoNT/A holotoxin = BoNT/A holotoxin (Clostridium botulinum, UniProt P0DPI1); format: cell-based
anthrax lethal factor = anthrax lethal factor (Bacillus anthracis, UniProt P15917); format: biochemical
BoNT/A LC [4] = molecular target: T1, BoNT/A LC; details: cited from earlier work

T1 sequence (P0DPI0 2-448 limits assumed): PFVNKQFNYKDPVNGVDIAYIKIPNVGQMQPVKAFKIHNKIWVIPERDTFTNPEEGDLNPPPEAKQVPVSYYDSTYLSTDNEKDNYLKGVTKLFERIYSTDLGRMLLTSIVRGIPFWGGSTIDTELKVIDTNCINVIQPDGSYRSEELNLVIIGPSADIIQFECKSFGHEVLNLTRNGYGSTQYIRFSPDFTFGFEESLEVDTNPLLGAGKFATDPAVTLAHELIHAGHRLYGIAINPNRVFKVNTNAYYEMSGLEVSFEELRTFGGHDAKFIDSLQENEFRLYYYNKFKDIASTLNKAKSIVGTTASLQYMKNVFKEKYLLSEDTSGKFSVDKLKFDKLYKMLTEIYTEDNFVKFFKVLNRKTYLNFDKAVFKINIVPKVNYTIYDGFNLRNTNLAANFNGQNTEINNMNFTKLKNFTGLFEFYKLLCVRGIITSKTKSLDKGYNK
Chain of BoNT/A LC metalloprotease (P0DPI0 2-448 limits assumed): as above
Chain of anthrax lethal factor (P15917 34-809 limits assumed): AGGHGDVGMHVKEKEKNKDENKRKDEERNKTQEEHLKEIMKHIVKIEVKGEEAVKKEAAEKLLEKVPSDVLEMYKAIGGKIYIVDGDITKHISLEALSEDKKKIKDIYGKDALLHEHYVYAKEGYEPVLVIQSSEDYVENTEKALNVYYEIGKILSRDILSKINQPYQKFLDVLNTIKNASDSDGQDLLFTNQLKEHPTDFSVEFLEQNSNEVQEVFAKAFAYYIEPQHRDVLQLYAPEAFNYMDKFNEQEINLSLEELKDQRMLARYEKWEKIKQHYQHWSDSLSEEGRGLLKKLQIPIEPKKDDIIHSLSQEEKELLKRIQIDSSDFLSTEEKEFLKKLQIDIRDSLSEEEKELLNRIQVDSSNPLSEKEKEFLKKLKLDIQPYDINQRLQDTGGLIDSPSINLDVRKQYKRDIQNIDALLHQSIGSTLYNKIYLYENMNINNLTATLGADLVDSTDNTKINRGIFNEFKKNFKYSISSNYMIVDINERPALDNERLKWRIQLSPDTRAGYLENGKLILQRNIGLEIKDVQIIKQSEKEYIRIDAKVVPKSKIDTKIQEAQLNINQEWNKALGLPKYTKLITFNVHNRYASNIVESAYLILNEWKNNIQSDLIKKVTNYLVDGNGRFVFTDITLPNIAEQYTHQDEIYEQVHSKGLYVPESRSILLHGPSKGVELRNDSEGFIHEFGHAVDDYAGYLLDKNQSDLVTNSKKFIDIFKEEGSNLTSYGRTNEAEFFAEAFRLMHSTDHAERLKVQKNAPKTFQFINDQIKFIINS
Chain of BoNT/A holotoxin (P0DPI1 2-448 limits assumed): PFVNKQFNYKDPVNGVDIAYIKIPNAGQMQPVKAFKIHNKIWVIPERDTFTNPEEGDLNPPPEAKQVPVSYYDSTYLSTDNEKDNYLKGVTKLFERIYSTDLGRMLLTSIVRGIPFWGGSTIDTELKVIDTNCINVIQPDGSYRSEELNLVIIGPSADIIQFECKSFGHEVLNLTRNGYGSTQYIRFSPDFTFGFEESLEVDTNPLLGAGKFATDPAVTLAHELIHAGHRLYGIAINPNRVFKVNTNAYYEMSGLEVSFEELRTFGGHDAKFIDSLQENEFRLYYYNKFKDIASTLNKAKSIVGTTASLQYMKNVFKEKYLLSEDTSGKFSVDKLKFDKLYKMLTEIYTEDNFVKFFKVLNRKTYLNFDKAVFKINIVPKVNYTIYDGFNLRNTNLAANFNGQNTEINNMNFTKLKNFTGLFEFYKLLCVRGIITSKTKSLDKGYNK

## N=C(N)c1ccc(Oc2ccc(-c3cc4ccc(C(=N)N)cc4[nH]3)cc2)cc1 [NSC 240898]
BoNT/A LC [1]
  ΔH: −3.04 and −3.04 ± 0.20 kcal mol^−1
  ΔS: 14 and 14.0 cal mol^−1 K^−1
BoNT/A LC [1]; Kd
  Kd: ~4.6 µM and 4.6 µM
BoNT/A LC [1]; pH 7.4
  Ka: 218000 ± 45000 M⁻¹
  N (number of binding sites, stoichiometry): 0.83±0.04
[2]
  % Inhibition of BoNT/A LC metalloprotease activity: 61%
[3]
  morphological signs of damage (tubulin, actin, DNA staining): little or no morphological signs of damage
[3]; chick
  concentration tolerated by cells without substantial cytotoxic effects: about 40 μM
BoNT/A holotoxin
  inhibition of SNAP-25 cleavage: robust dose-dependent inhibition
Anthrax lethal factor
  inhibition of protease activity of anthrax lethal factor: inhibit the protease activity of anthrax lethal factor

## N=C(N)c1ccc2oc(/C=C/c3cc4cc(C(=N)N)ccc4s3)cc2c1 [NSC 266472]
[2]
  % Inhibition of BoNT/A LC metalloprotease activity: 57%

## C(=C\c1cc2cc(C3=NCCN3)ccc2o1)/c1cc2cc(C3=NCCN3)ccc2o1 [NSC 278999]
[2]
  % Inhibition of BoNT/A LC metalloprotease activity: 53%

## N=C(N)c1ccc2[nH]c(/C=C/c3cc4cc(C(=N)N)ccc4o3)cc2c1 [NSC 290107]
[2]
  % Inhibition of BoNT/A LC metalloprotease activity: 52%
Anthrax lethal factor
  inhibition of protease activity of anthrax lethal factor: inhibit the protease activity of anthrax lethal factor

## C(=C\c1cc2cc(C3=NCCN3)ccc2o1)/c1cc2cc(C3=NCCN3)ccc2[nH]1 [NSC 290108]
[2]
  % Inhibition of BoNT/A LC metalloprotease activity: 51%
Anthrax lethal factor
  inhibition of protease activity of anthrax lethal factor: inhibit the protease activity of anthrax lethal factor

## N=C(N)c1ccc2cc(/C=C/c3cc4ccc(C(=N)N)cc4o3)[nH]c2c1 [NSC 294200]
[2]
  % Inhibition of BoNT/A LC metalloprotease activity: 48%
Anthrax lethal factor
  inhibition of protease activity of anthrax lethal factor: inhibit the protease activity of anthrax lethal factor

## N=C(N)c1ccc2[nH]c(/C=C/c3cc4ccc(C(=N)N)cc4o3)cc2c1 [NSC 294203]
[2]
  % Inhibition of BoNT/A LC metalloprotease activity: 46%
Anthrax lethal factor
  inhibition of protease activity of anthrax lethal factor: inhibit the protease activity of anthrax lethal factor

## C(=C\c1cc2ccc(C3=NCCN3)cc2o1)/c1cc2cc(C3=NCCN3)ccc2[nH]1 [NSC 294204]
[2]
  % Inhibition of BoNT/A LC metalloprotease activity: 38%
Anthrax lethal factor
  inhibition of protease activity of anthrax lethal factor: inhibit the protease activity of anthrax lethal factor

## C(=C\c1cc2ccc(C3=NCCN3)cc2o1)/c1cc2ccc(C3=NCCN3)cc2o1 [NSC 294494]
[2]
  % Inhibition of BoNT/A LC metalloprotease activity: 45%

## N=C(N)c1ccc2oc(/C=C/C=C/c3cc4cc(C(=N)N)ccc4o3)cc2c1 [NSC 300511]
[2]
  % Inhibition of BoNT/A LC metalloprotease activity: 37%
Anthrax lethal factor
  inhibition of protease activity of anthrax lethal factor: inhibit the protease activity of anthrax lethal factor

## C(/C=C/c1cc2cc(C3=NCCN3)ccc2o1)=C\c1cc2cc(C3=NCCN3)ccc2o1 [NSC 308571]
[2]
  % Inhibition of BoNT/A LC metalloprotease activity: 52%
Anthrax lethal factor
  inhibition of protease activity of anthrax lethal factor: inhibit the protease activity of anthrax lethal factor

## N=C(N)c1ccc2oc(/C=C/C=C/C=C/c3cc4cc(C(=N)N)ccc4o3)cc2c1 [NSC 308574]
[2]
  % Inhibition of BoNT/A LC metalloprotease activity: 63%
[3]; chick
  concentration at which highly cytotoxic: 1 to 5 µM
Anthrax lethal factor
  inhibition of protease activity of anthrax lethal factor: inhibit the protease activity of anthrax lethal factor

## C(=C\c1cc2ccc(C3=NCCN3)cc2[nH]1)/c1cc2ccc(C3=NCCN3)cc2[nH]1 [NSC 317880]
[2]
  % Inhibition of BoNT/A LC metalloprotease activity: 35%
Anthrax lethal factor
  inhibition of protease activity of anthrax lethal factor: inhibit the protease activity of anthrax lethal factor

## c1cc2cc(-c3ccc(-c4cc5ccc(C6=NCCN6)cc5[nH]4)cc3)[nH]c2cc1C1=NCCN1 [NSC 317881]
[2]
  % Inhibition of BoNT/A LC metalloprotease activity: 45%
Anthrax lethal factor
  inhibition of protease activity of anthrax lethal factor: inhibit the protease activity of anthrax lethal factor

## C(=C\c1cc2cc(C3=NCCN3)ccc2s1)/c1ccc(C2=NCCN2)cc1 [NSC 317883]
[2]
  % Inhibition of BoNT/A LC metalloprotease activity: 41%

## N=C(N)c1ccc(/C=C/c2cc3cc(C(=N)N)ccc3[nH]2)cc1 [NSC 317884]
[2]
  % Inhibition of BoNT/A LC metalloprotease activity: 47%
Anthrax lethal factor
  inhibition of protease activity of anthrax lethal factor: inhibit the protease activity of anthrax lethal factor

## N=C(N)c1ccc(/C=C/c2cc3ccc(C(=N)N)cc3[nH]2)cc1 [NSC 317886]
[2]
  % Inhibition of BoNT/A LC metalloprotease activity: 43%
Anthrax lethal factor
  inhibition of protease activity of anthrax lethal factor: inhibit the protease activity of anthrax lethal factor

## CCN(CC)CCCNc1cc(C)nc2c1ccc1c2ccc2c(NCCCN(CC)CC)cc(C)nc21 [NSC 328398]
[2]; at 10 μM
  inhibition at 10 µM: 45%

## c1cc2cc(-c3cc4ccc(C5=NCCN5)cc4[nH]3)[nH]c2cc1C1=NCCN1 [NSC 330688]
[2]
  % Inhibition of BoNT/A LC metalloprotease activity: 43%

## C(=C\c1cc2ccc(C3=NCCN3)cc2[nH]1)/c1ccc(Oc2ccc(C3=NCCN3)cc2)cc1 [NSC 330690]
[2]
  % Inhibition of BoNT/A LC metalloprotease activity: 53%

## C(=C\c1cc2ccc(C3=NCCN3)cc2[nH]1)/c1ccc2cc(C3=NCCN3)[nH]c2c1 [NSC 341907]
[2]
  % Inhibition of BoNT/A LC metalloprotease activity: 60%
Anthrax lethal factor
  inhibition of protease activity of anthrax lethal factor: inhibit the protease activity of anthrax lethal factor

## N=C(N)N/N=C/c1ccc(-c2cc3ccc(/C=N/NC(=N)N)cc3s2)cc1 [NSC 341909]
[2]
  % Inhibition of BoNT/A LC metalloprotease activity: 68%
[3]; chick
  concentration at which highly cytotoxic: 1 to 5 µM
Anthrax lethal factor
  inhibition of protease activity of anthrax lethal factor: inhibit the protease activity of anthrax lethal factor

## C1=NC(c2ccc3cc(-c4c(-c5ccc(C6=NCCN6)cc5)[nH]c5cc(C6=NCCN6)ccc45)[nH]c3c2)NC1 (stereo not shown) [NSC 341911]
[2]
  % Inhibition of BoNT/A LC metalloprotease activity: 37%
Anthrax lethal factor
  inhibition of protease activity of anthrax lethal factor: inhibit the protease activity of anthrax lethal factor

## C(=C\c1ccc2[nH]c(C3=NCCN3)cc2c1)/c1ccc(Oc2ccc(C3=NCCN3)cc2)cc1 [NSC 352341]
[2]
  % Inhibition of BoNT/A LC metalloprotease activity: 40%

## C(=C/c1cc2cc(C3=NCCN3)ccc2o1)/c1cc2cc(C3=NCCN3)ccc2o1 [NSC 607617]
[2]
  % Inhibition of BoNT/A LC metalloprotease activity: 36%

## C[C@H](CS)C(=O)N1CCC[C@H]1C(=O)O [captopril]
BoNT/A LC [4]
  inhibition of BoNT/A LC by known protease inhibitors: inhibited by mM concentrations

## CCOC(=O)[C@H](CCc1ccccc1)N[C@@H](C)C(=O)N1CCC[C@H]1C(=O)O [enalapril]
BoNT/A LC [4]
  inhibition of BoNT/A LC by known protease inhibitors: inhibited by mM concentrations

## NCCCC[C@H](N[C@@H](CCc1ccccc1)C(=O)O)C(=O)N1CCC[C@H]1C(=O)O [lysinopril]
BoNT/A LC [4]
  inhibition of BoNT/A LC by known protease inhibitors: inhibited by mM concentrations

## CRATKML
BoNT/A LC [4]
  inhibitor potency in words: potent inhibitor
